Results from US8993574B2, “Pyrrole antifungal agents” (F2G Ltd, priority 2008, dated 2015).
In brackets after ≈: the same amount, converted by molar mass.

Legend:
Type in all cases: cell-based
Aspergillus flavus [1] = assay: MIC, YAG medium; settings: 24 h at 35° C, MIC banded into grades; for MIC: Aspergillus flavus, 24 h, read-out: MIC grade, A. flavus
How it was run: (§1)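 DMSO stocks diluted in water as doubling series; spore suspension in YAG (glucose, NH4Cl, yeast extract) added to give 1−2×10^4 cfu/mL. 35° C, 24 h. Growth by OD485; MIC at >70% inhibition, mg/L.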

[2] = system: Aspergillus fumigatus AF210; assay: MIC, YAG medium; settings: 24 h at 35° C, MIC banded into grades; for MIC: Aspergillus fumigatus, read-out: MIC grade, A. fumigatus 210
How it was run: as §1

[3] = system: Aspergillus fumigatus AF293; assay: MIC, YAG medium; settings: 24 h at 35° C, MIC banded into grades; for MIC: Aspergillus fumigatus, read-out: MIC grade, A. fumigatus
How it was run: as §1

Aspergillus niger [4] = assay: MIC, YAG medium; settings: 24 h at 35° C, MIC banded into grades; for MIC: Aspergillus niger, read-out: MIC grade, A. niger
How it was run: as §1

Aspergillus terreus AT49 [5] = assay: MIC, YAG medium; settings: 24 h at 35° C, MIC banded into grades; for MIC: Aspergillus terreus, read-out: MIC grade, A. terreus 49
How it was run: as §1

Aspergillus terreus AT4 [6] = assay: MIC, YAG medium; settings: 24 h at 35° C, MIC banded into grades; for MIC: Aspergillus terreus, read-out: MIC grade, A. terreus
How it was run: as §1

Aspergillus flavus [7] = assay: MIC, RPMI medium; settings: MIC banded into grades; for MIC: Aspergillus flavus, read-out: MIC grade, A. flavus
How it was run: (§2)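 OD485-based endpoint after 24-48 h/35° C; MIC = lowest concentration, >80% inhibition relative to drug-free. RPMI/2% glucose/0.135 M MOPS pH 7.0; 1−2×10^4 cfu/mL; range 50-0.05 mg/L.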

[8] = system: Aspergillus fumigatus AF210; assay: MIC, RPMI medium; settings: for MIC: Aspergillus fumigatus, AF210, MIC banded into grades, read-out: MIC grade, A. fumigatus 210; for MIC grade, A. fumigatus 210: MIC banded into grades
How it was run: as §2

[9] = system: Aspergillus fumigatus AF293; assay: MIC, RPMI medium; settings: for MIC: Aspergillus fumigatus, AF293, MIC banded into grades, read-out: MIC grade, A. fumigatus; for MIC grade, A. fumigatus: MIC banded into grades
How it was run: as §2

Aspergillus niger [10] = assay: MIC, RPMI medium; settings: MIC banded into grades; for MIC: Aspergillus niger, read-out: MIC grade, A. niger
How it was run: as §2

Aspergillus terreus AT49 [11] = assay: MIC, RPMI medium; settings: for MIC: Aspergillus terreus, AT49, MIC banded into grades, read-out: MIC grade, A. terreus 49; for MIC grade, A. terreus 49: MIC banded into grades
How it was run: as §2

Aspergillus terreus AT4 [12] = assay: MIC, RPMI medium; settings: for MIC: Aspergillus terreus, AT4, MIC banded into grades, read-out: MIC grade, A. terreus; for MIC grade, A. terreus: MIC banded into grades
How it was run: as §2

Cc1cccc(N2CCN(c3ccc(NC(=O)C(=O)c4c(-c5ccccc5)cc(C)n4C)cc3)CC2)n1 [Example 39, 2-(1,5-Dimethyl-3-phenyl-1H-pyrrol-2-yl)-N-{4-[4-(6-methyl-pyridin-2-yl)-piperazin-1-yl]-phenyl}-2-oxo-acetamide]
MIC (Aspergillus flavus [1]): < 1 µg/mL
MIC [2]: < 1 µg/mL
MIC [3]: < 1 µg/mL
MIC (Aspergillus niger [4]): < 1 µg/mL
MIC (Aspergillus terreus AT49 [5]): < 1 µg/mL
MIC (Aspergillus terreus AT4 [6]): < 1 µg/mL
MIC (Aspergillus flavus [7]): < 1 µg/mL
MIC [8]: < 1 µg/mL
MIC [9]: < 1 µg/mL
MIC (Aspergillus niger [10]): < 1 µg/mL
MIC (Aspergillus terreus AT49 [11]): < 1 µg/mL
MIC (Aspergillus terreus AT4 [12]): < 1 µg/mL

Cc1cc(-c2ccccc2)c(C(=O)C(=O)Nc2ccncc2)n1C [Example 33, 2-(1,5-Dimethyl-3-phenyl-1H-pyrrol-2-yl)-2-oxo-N-pyridin-4-yl-acetamide]
MIC (Aspergillus flavus [1]): > 10 µg/mL
MIC [2]: > 10 µg/mL
MIC [3]: > 10 µg/mL
MIC (Aspergillus niger [4]): > 10 µg/mL
MIC (Aspergillus terreus AT49 [5]): 1 to 10 µg/mL (≈ 3.13 to 31.3 µM)
MIC (Aspergillus terreus AT4 [6]): > 10 µg/mL
MIC (Aspergillus flavus [7]): > 10 µg/mL
MIC [8]: > 10 µg/mL
MIC [9]: > 10 µg/mL
MIC (Aspergillus niger [10]): > 10 µg/mL
MIC (Aspergillus terreus AT49 [11]): > 10 µg/mL
MIC (Aspergillus terreus AT4 [12]): > 10 µg/mL

CCCc1cc(-c2ccccc2)c(C(=O)C(=O)Nc2ccc(N3CCN(c4cc(C)cc(C)n4)CC3)cc2)n1C [Example 124, N-{4-[4-(4,6-Dimethyl-pyridin-2-yl)-piperizin-1-yl]-phenyl}-2-[1-methyl-3-phenyl-5-propyl-1H-pyrrol-2-yl)-2-oxo-acetamide]
MIC grade, A. flavus (Aspergillus flavus [1]): 3 (A grade of 3 represents an MIC of less than 1 mg/L)
MIC grade, A. fumigatus 210 [2]: 3 (A grade of 3 represents an MIC of less than 1 mg/L)
MIC grade, A. fumigatus [3]: 3 (A grade of 3 represents an MIC of less than 1 mg/L)
MIC grade, A. niger (Aspergillus niger [4]): 3 (A grade of 3 represents an MIC of less than 1 mg/L)
MIC grade, A. terreus 49 (Aspergillus terreus AT49 [5]): 3 (A grade of 3 represents an MIC of less than 1 mg/L)
MIC grade, A. terreus (Aspergillus terreus AT4 [6]): 3 (A grade of 3 represents an MIC of less than 1 mg/L)
MIC grade, A. flavus (Aspergillus flavus [7]): 2 (A grade of 2 represents an MIC of from 1 to 10 mg/L)
MIC grade, A. fumigatus 210 [8]: 2 (A grade of 2 represents an MIC of from 1 to 10 mg/L)
MIC grade, A. fumigatus [9]: 2 (A grade of 2 represents an MIC of from 1 to 10 mg/L)
MIC grade, A. niger (Aspergillus niger [10]): 1 (a grade of 1 represents an MIC of greater than 10 mg/L)
MIC grade, A. terreus 49 (Aspergillus terreus AT49 [11]): 2 (A grade of 2 represents an MIC of from 1 to 10 mg/L)
MIC grade, A. terreus (Aspergillus terreus AT4 [12]): 2 (A grade of 2 represents an MIC of from 1 to 10 mg/L)

COCCCCn1c(C)cc(-c2ccccc2)c1C(=O)C(=O)Nc1ccc(N2CCN(c3cc(C)cc(C)n3)CC2)cc1 [Example 142, N-{4-[4-(4,6-Dimethyl-pyridin-2-yl)-piperazin-1-yl]-phenyl}-2-[1-(4-methoxy-butyl)-5-methy-3-phenyl-1H-pyrrol-2-yl]-2-oxo-acetamide]
MIC grade, A. flavus (Aspergillus flavus [1]): 3 (A grade of 3 represents an MIC of less than 1 mg/L)
MIC grade, A. fumigatus 210 [2]: 3 (A grade of 3 represents an MIC of less than 1 mg/L)
MIC grade, A. fumigatus [3]: 3 (A grade of 3 represents an MIC of less than 1 mg/L)
MIC grade, A. niger (Aspergillus niger [4]): 3 (A grade of 3 represents an MIC of less than 1 mg/L)
MIC grade, A. terreus 49 (Aspergillus terreus AT49 [5]): 3 (A grade of 3 represents an MIC of less than 1 mg/L)
MIC grade, A. terreus (Aspergillus terreus AT4 [6]): 3 (A grade of 3 represents an MIC of less than 1 mg/L)
MIC grade, A. flavus (Aspergillus flavus [7]): 3 (A grade of 3 represents an MIC of less than 1 mg/L)
MIC grade, A. fumigatus 210 [8]: 3 (A grade of 3 represents an MIC of less than 1 mg/L)
MIC grade, A. fumigatus [9]: 3 (A grade of 3 represents an MIC of less than 1 mg/L)
MIC grade, A. niger (Aspergillus niger [10]): 3 (A grade of 3 represents an MIC of less than 1 mg/L)
MIC grade, A. terreus 49 (Aspergillus terreus AT49 [11]): 3 (A grade of 3 represents an MIC of less than 1 mg/L)
MIC grade, A. terreus (Aspergillus terreus AT4 [12]): 3 (A grade of 3 represents an MIC of less than 1 mg/L)

COC(=O)Cn1ccc(C2CCC2)c1C(=O)C(=O)Nc1ccc(N2CCN(c3cc(C)cc(C)n3)CC2)cc1 [Example 107, (3-Cyclobutyl-2-{4-[4-(4,6-dimethyl-pyridin-2-yl)-piperazin-1-yl]-phenylaminooxalyl}-pyrrol-1-yl)-acetic acid methyl ester]
MIC grade, A. flavus (Aspergillus flavus [1]): 1 (a grade of 1 represents an MIC of greater than 10 mg/L)
MIC grade, A. fumigatus 210 [2]: 3 (A grade of 3 represents an MIC of less than 1 mg/L)
MIC grade, A. fumigatus [3]: 3 (A grade of 3 represents an MIC of less than 1 mg/L)
MIC grade, A. niger (Aspergillus niger [4]): 1 (a grade of 1 represents an MIC of greater than 10 mg/L)
MIC grade, A. terreus 49 (Aspergillus terreus AT49 [5]): 1 (a grade of 1 represents an MIC of greater than 10 mg/L)
MIC grade, A. terreus (Aspergillus terreus AT4 [6]): 1 (a grade of 1 represents an MIC of greater than 10 mg/L)
MIC grade, A. flavus (Aspergillus flavus [7]): 1 (a grade of 1 represents an MIC of greater than 10 mg/L)
MIC grade, A. fumigatus 210 [8]: 2 (A grade of 2 represents an MIC of from 1 to 10 mg/L)
MIC grade, A. fumigatus [9]: 3 (A grade of 3 represents an MIC of less than 1 mg/L)
MIC grade, A. niger (Aspergillus niger [10]): 1 (a grade of 1 represents an MIC of greater than 10 mg/L)
MIC grade, A. terreus 49 (Aspergillus terreus AT49 [11]): 1 (a grade of 1 represents an MIC of greater than 10 mg/L)
MIC grade, A. terreus (Aspergillus terreus AT4 [12]): 1 (a grade of 1 represents an MIC of greater than 10 mg/L)
